Measured values reported in patent publication US11608483B2, “Inverted culture plate system for cellular co-culture” (University of Maryland, Baltimore, priority 2016, dated 2023).
Where two headings read alike, the source gives them in different places.

What was measured:
hCAR1+A = target: T1, hCAR1+A (Homo sapiens, UniProt Q14994, INS274A); test: CAR1+A/CYP2B6-2.2k reporter assay in transfected HepG2 cells; type: cell-based; conditions: HepG2 cells without HPHs, 24 h
T1 construct: expressed in transfected cells; host or cells: HepG2
T1 sequence (Q14994 with tags, fused parts or gaps isoform Q14994-2 INS270A): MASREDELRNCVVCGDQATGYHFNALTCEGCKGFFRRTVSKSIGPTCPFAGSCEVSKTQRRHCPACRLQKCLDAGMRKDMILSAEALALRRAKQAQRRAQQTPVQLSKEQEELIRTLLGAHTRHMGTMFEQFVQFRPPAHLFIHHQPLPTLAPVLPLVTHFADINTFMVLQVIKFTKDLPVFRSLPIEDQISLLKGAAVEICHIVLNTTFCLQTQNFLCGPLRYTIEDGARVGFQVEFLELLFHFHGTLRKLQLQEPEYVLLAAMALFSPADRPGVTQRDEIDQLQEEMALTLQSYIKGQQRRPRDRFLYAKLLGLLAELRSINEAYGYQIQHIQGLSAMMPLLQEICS
T1 sequence (P19793 1-462 partner): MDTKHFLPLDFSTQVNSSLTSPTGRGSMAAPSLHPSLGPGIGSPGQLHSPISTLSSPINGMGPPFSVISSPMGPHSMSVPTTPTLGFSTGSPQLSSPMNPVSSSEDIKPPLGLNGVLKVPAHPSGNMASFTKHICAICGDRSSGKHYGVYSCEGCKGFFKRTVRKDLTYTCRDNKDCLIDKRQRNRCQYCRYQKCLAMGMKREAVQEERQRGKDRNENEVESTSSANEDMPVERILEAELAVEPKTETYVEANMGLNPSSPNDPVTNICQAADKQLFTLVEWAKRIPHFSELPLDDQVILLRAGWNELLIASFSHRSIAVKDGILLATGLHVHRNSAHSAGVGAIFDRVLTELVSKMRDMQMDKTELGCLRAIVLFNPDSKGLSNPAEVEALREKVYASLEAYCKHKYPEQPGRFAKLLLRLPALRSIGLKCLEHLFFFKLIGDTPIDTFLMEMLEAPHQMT

[1] = test system: CYP2B6 and CYP3A4 expression; test: CYP2B6 and CYP3A4 mRNA (real-time RT-PCR) and protein (western blot) induction in human primary hepatocytes
Experimental: (§1) The age and sex of each liver donor used are detailed in Table 1.
(§2) Total RNA was isolated from cells using TRIzol reagent (ThermoFisher, Rockford, Ill.) and reverse transcribed using a High Capacity cDNA archive kit (Applied
(§3) Biosystems, Foster, Calif.) according to the manufacturer's instructions. Real-time PCR assay was performed using SYBR Green PCR Mastermix (Qiagen, Germantown, Md.) on an ABI StepOnePlus real-timePCR system (Applied Biosystems). […] Expression values were quantified using the following equation: fold over control=2^ΔΔCt method, where ΔCt represents the differences in cycle threshold numbers between the target gene and glyceraldehyde-3-phosphate dehydrogenase, and ΔΔCt represents the relative change in these differences between control and treatment groups.
(§4) Subsequently, membranes were incubated with primary antibodies against CYP2B6 (1:200; Santa Cruz Biotechnology, Santa Cruz, Calif.), CYP3A4 (1:5000; Sigma-Aldrich), or β-actin (1:50,000, Sigma-Aldrich) at 4° C. overnight. Blots were developed with West Pico chemiluminescent substrates (ThermoFisher) after incubation with horse-radish peroxidase secondary antibodies.

hCAR [2] = target: T2, hCAR (Homo sapiens, UniProt Q14994); test: CYP2B6 luciferase reporter assay in HepG2-CAR-2B6 stable cells without HPHs; type: cell-based; design: expressed in transfected cells; conditions: 24 h; for hCAR activity (CYP2B6 reporter luciferase activity): HepG2-CAR-2B6 cells without HPHs
T2 sequence (Q14994 1-348 isoform Q14994-2): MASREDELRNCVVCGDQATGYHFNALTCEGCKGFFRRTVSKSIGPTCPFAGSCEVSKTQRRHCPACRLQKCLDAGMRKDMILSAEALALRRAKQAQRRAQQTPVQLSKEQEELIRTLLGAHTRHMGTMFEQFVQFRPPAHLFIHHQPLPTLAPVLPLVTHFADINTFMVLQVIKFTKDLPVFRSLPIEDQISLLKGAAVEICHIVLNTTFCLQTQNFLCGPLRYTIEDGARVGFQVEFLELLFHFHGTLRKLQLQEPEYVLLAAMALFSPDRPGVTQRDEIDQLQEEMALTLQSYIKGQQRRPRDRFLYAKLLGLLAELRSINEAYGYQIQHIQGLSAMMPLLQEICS

hCAR [3] = target: T2, hCAR; test: Nuclear translocation of EYFP-hCAR in HPHs; type: cell-based; design: expressed in transfected cells; conditions: HPHs donor 123; 1 mM PB, 10 μM others; 8 hours
Experimental: After treatment, cells were fixed with 4% paraformaldehyde, stained with 1 μg/ml 4′,6-diamidino-2-phenylindole (Sigma-Aldrich) for 30 minutes, and EYFP-hCAR localization in hepatocytes was visualized on a Nikon Eclipse TI fluorescent microscope (Nikon, Melville, N.Y.). Quantitative distribution of EYFP-hCAR was analyzed using General Analysis in the Nikon Elements AR High Content Analysis software package (version 4.50.00). Nuclear localization was defined and quantified as the percentage of total enhanced yellow fluorescent protein that overlaps with 4′,6-diamidino-2-phenylindole.

[4] = test system: human primary hepatocytes (HPHs); test: LC-MS/MS measurement of PK11195 metabolism in HPHs; type: in vitro ADME; conditions: for LC-MS/MS peak of metabolite in HPH culture medium: after 1 hour incubation of 10 μM PK11195 with HPHs, versus 0 hour
Experimental: Media (450 μl ) were collected from each well at 0 and 1 hours and frozen immediately at −80° C. Samples were thawed on ice before adding 50 μl of medium to 450 μl of ice-cold methanol/H2O (8:1, v/v). After centrifugation at 16,000g for 30 minutes, 200 μl of supernatant was transferred to a separate tube and dried down before resuspension in 200 μl H2O/ACN (1:1, v/v) with 0.1% formic acid. Authentic standards were prepared to 1 μM in H2O/ACN (1:1, v/v) with 0.1% formic acid. LC-MS/MS analysis was performed on a TSQ Quantum Ultra Triple Stage Quadrupole Mass Spectrometer coupled to an Ultimate 3000 RS Liquid Chromatogram System (Thermo Scientific, Waltham, Mass.). The LC separation was performed on a Waters (Milford, Mass.) BEH C18 column (2.1×50 mm, 1.7 μm) operated at 30° C. Solvents A and B consisted of 0.1% formic acid in H2O and 0.1% formic acid in ACN, respectively. The gradient program was 0.0-0.5 minutes, 50% B; 0.5-2.0 minutes, gradient to 95% B; 2.0-3.5 minutes, 95% B; 3.5-4.0 minutes, gradient to 50% B; and 4.0-5.0 minutes, 50% B. The flow rate was 0.5 ml/min and injection volume was 5 μl. Tandem mass spectrometry was performed in the positive-ion mode and the electrospray ionization source parameters were as follows: spray voltage, 3000; capillary temperature, 325; sheath gas pressure, 40; auxiliary gas pressure, 15; capillary offset, 35; and tube lens offset, 80. […] Data collection and analysis were performed using Xcalibur V 2.1 (Thermo Scientific).

[5] = Mordente A et al., 2009; cited from earlier work
hCAR/SRC-1 interaction = target: T3, hCAR/SRC-1 interaction (Homo sapiens, UniProt Q14994); test: Mammalian two-hybrid assay in COS1 cells, CAR/SRC-1; type: cell-based; conditions: 24 h
T3 construct: expressed in transfected cells; host or cells: COS1
T3 sequence (Q14994 1-348 isoform Q14994-2): T2 sequence (Q14994 1-348 isoform Q14994-2)
Experimental: (§5) COS1 cells seeded in 24-well plates were transfected with 110 ng of the reporter gene plasmid pG5luc, 80 ng of expression plasmids encoding the respective VP16AD/hCAR fusions, 40 ng of expression plasmids encoding GAL4-DBD/coregulatory fusions, and 20 ng of reference plasmid pRL-TK, each well using X-tremeGENE 9 DNA Transfection Reagent (Sigma-Aldrich). […] Luciferase activities were measured in cell lysates using the Dual Luciferase Kit (Promega). Data represent the mean±S.D. of three individual transfections.

[6] = test system: CYP2B6 and CYP3A4 expression; test: CYP2B6 and CYP3A4 induction in PXR-KO HepaRG cells; conditions: differentiated PXR-KO HepaRG cells; 10 μM; 24 h mRNA, 72 h protein
Experimental: as §1, §2, §3, §4

hCAR/GRIP1 interaction = target: T4, hCAR/GRIP1 interaction (Homo sapiens, UniProt Q14994); test: Mammalian two-hybrid assay in COS1 cells, CAR/GRIP1; type: cell-based; conditions: 24 h
T4 construct: expressed in transfected cells; host or cells: COS1
T4 sequence (Q14994 1-348 isoform Q14994-2): T2 sequence (Q14994 1-348 isoform Q14994-2)
Experimental: as §5

hCAR [7] = target: T2, hCAR; conditions: 8 μM KET, PK11195 1 and 10 μM, HPH co-culture, 24 h
[8] = test system: CYP2B6 and CYP3A4 expression; test: CYP2B6 and CYP3A4 induction in wild-type HepaRG cells; type: cell-based; conditions: differentiated wild-type HepaRG cells; 10 μM PK11195; 24 h mRNA, 72 h protein
Experimental: as §1, §2, §3, §4

HEK-293 cells [9] = conditions: HEK-293 cultured alone, concentration up to 1 mM, 24 hrs
HEK-293 cells [10] = conditions: HPH/HEK-293 co-culture versus HEK-293 alone, 24 hrs

With `O=C(O)c1cc2ccccc2c(-c2ccccc2Cl)n1` [COOH-PK, 1-(2-Chlorophenyl)isoquinoline-3-carboxylic acid] the “hCAR activation in the CAR1+A/CYP2B6-2.2k reporter assay” value (hCAR1+A) was “negligible CAR activation”, the “induction of CYP2B6 and CYP3A4 at mRNA and protein levels” value (“induction … at mRNA and protein levels” for short) ([1]; HPHs from liver donors 120 and 121, 0.1, 1 and 10 μM, 24 h mRNA, 72 h protein) was “negligible effects” and the “hCAR activity (CYP2B6 reporter luciferase activity)” value (hCAR [2]) was “no effect on CAR activity”. For the same molecule, the “nuclear translocation of hCAR (EYFP-hCAR)” value (hCAR [3]) was “negligible CAR nuclear accumulation” and the “LC-MS/MS peak of metabolite in HPH culture medium” value [4] was “significantly increased in intensity”.
For `COc1cccc2c1C(=O)c1c(O)c3c(c(O)c1C2=O)C[C@@](O)(C(=O)CO)C[C@@H]3O[C@H]1C[C@H](N)[C@H](O)[C@H](C)O1` [DOX, doxorubicin], the “fraction eliminated from the body unchanged” value [5] is given as “over 50%”.
For `CC[C@@H](C)NC(=O)c1cc2ccccc2c(-c2ccccc2Cl)n1` [ND-PK, (R)-N-Desmethyl PK11195], the “hCAR activation in the CAR1+A/CYP2B6-2.2k reporter assay” value (hCAR1+A) was “robustly activates hCAR to a level similar to the positive control”, the “interaction between hCAR and SRC-1” value (hCAR/SRC-1 interaction; 10 μM, COS1 cells) was “moderately enhanced” and the “effect on PK11195 mediated repression of SRC-1/CAR interaction” value (hCAR/SRC-1 interaction; ND-PK + PK11195 co-treatment) was “markedly rescued”. For the same molecule, the “hCAR activity (CYP2B6 reporter luciferase activity)” value (hCAR [2]) was “activated hCAR in a concentration-dependent manner”, the “nuclear translocation of hCAR (EYFP-hCAR)” value (hCAR [3]) was “robustly increased nuclear translocation” and the “induction of CYP2B6 and CYP3A4 mRNA and protein” value [6] was “significantly induced”. For the same molecule, the “interaction between hCAR and GRIP1” value (hCAR/GRIP1 interaction; 10 μM, COS1 cells) was “moderately enhanced”, the “effect on PK11195-repressed binding of GRIP1 to hCAR” value (hCAR/GRIP1 interaction; ND-PK + PK11195 co-treatment) was “only minimally affecting” and the “LC-MS/MS peak of metabolite in HPH culture medium” value [4] was “significantly increased in intensity”.
With `CC(=O)N1CCN(c2ccc(OCC3COC(Cn4ccnc4)(c4ccc(Cl)cc4Cl)O3)cc2)CC1` (stereo not shown) [KET, ketoconazole] the “effect of KET co-treatment on repression of CAR activity by PK11195” value (hCAR [2]; 8 μM KET, HepG2-CAR-2B6 cells alone) was “not influenced” and the “effect of KET co-treatment on conversion of PK11195 from CAR antagonist to CAR activator” value (hCAR [7]) was “significantly inhibited the conversion of PK11195”.
With `CCC1(c2ccccc2)C(=O)NC(=O)NC1=O` [PB, Phenobarbital] the “induction … at mRNA and protein levels” value ([1]; hepatocytes) was “robustly induced”.
With `CCC(C)N(C)C(=O)c1cc2ccccc2c(-c2ccccc2Cl)n1` (stereo not shown) [PK11195, 1-(2-chlorophenyl)-N-methyl-N-(1-methylpropyl)-3-isoquinolinecarboxamide] the “induction … at mRNA and protein levels” value [1] was “robustly induced”, the “induction of CYP2B6 and CYP3A4 mRNA and protein” value [8] was “induced the expression of CYP2B6 and CYP3A4 mRNA and protein” and the “induction of CYP2B6 and CYP3A4 mRNA and protein” value [6] was “significantly induced”. For the same molecule, the “metabolism of PK11195 by HPHs” value ([4]; 10 μM PK11195, media at 0 and 1 hour) was “metabolized by HPHs to COOH-PK and ND-PK”.
With `Clc1ccc(-c2nc3sccn3c2C=NOCc2ccc(Cl)c(Cl)c2)cc1` [CITCO, 6-(4-Chlorophenyl)imidazo[2,1-b][1,3]thiazole-5-carbaldehyde-O-(3,4-dichlorobenzyl)oxime] the “induction … at mRNA and protein levels” value ([1]; HPHs from liver donors 107 and 122, 1 mM PB, 1 μM CITCO, 10 μM RIF, 10 μM PK11195, 24 h mRNA, 72 h protein) was “robustly induced”.
For `O=P1(N(CCCl)CCCl)NCCCO1` (stereo not shown) [CPA, cyclophosphamide], the cytotoxicity (HEK-293 cells [9]) was “no cytotoxicity” and the metabolism-dependent cytotoxicity (HEK-293 cells [10]) was “showed metabolism-dependence in the co-culture only”.
